# Laboratory results: patent US20230111504A1, “COR[…] AND AVERMECTINS” (Huvepharma EOOD, priority 2020, published 2023)
# Where two headings read alike, the source gives them in different places.
# Key:
# [1] = test system: SARS-CoV-2; experiment: COVID-19 clinical trial: viral clearance in upper respiratory tract swab samples (RT-PCR); assay type: in vivo, human
# Description: (§1) Inclusion Criteria • 1. Male or female patients at least 18 years and up to 75 years old • 2. Signed informed consent • 3. Admitted to hospital for treatment of COVID-19. • 4. Patient within 7 days from symptom onset and within 72 hours after laboratory diagnosis (SARS-CoV-2 RT-PCR) • 5. Mild to Moderate COVID-19 disease defined as clinical status category up to 3 on the WHO 9-point ordinal scale, and/or NEWS2 score of 0 to 4 inclusive. • Hospitalized, no oxygen treatment • 6. Presence of at least 1 symptom characteristic for COVID-19 disease, e.g. fever, cough, sore throat, myalgia, fatigue, GI disorders, skin lesions, anosmia, ageusia, headache, etc • 7. In women of childbearing potential, negative pregnancy test and commitment to use contraceptive method throughout the study.
# (§2) Patients are screened for 24-36 hours. […] It is encouraged to screen potential participants immediately at the day of hospitalization (including informed consent, assessment of inclusion/exclusion criteria, screening laboratory tests all done by the local central lab, assessment of clinical symptoms criteria) and randomize patients on the same day (thus, Screening period and Day 1 will coincide). To assess eligibility criteria, central local laboratory values obtained within 24-36 hours of randomization will be used, except for pre-study testing of positive status of COVID-19 infection where a 72-hours window.
# Primary endpoint based on which the primary study objective will be assessed is proportion of patients who have shown negative SARS-CoV-2 PCR test on Day 7.
# (§3) Day 1 is defined as the day of the first IMP/placebo administration.
# Viral Clearance in Upper Respiratory Tract Swab Samples (Qualitative)—Remission
# Upper respiratory tract swab samples will be collected on Days 3, 4, 5, 6, 7, 9, 12 and 14 or until two negative results are obtained. Between Day 15 and Day 28 RT-PCR shall be done upon the discretion of the Investigator until 2 consecutive negative tests.
# No further RT-PCR tests will be done after 2 consecutive negative tests are obtained at any time point of the study. Swab samples should be obtained from the nasopharynx and oropharynx with two different swabs and combined in one tube, containing universal transport media. Samples are collected preferably in the mornings of each study day. Full instructions for collection, preparation, labelling, storage and shipment of samples are provided in the Laboratory Manual.
# [2] = test system: COVID-19; experiment: COVID-19 clinical trial: clinical improvement on WHO 9-category ordinal scale; assay type: in vivo, human
# Description: as §1, §2
# The secondary endpoints, related to the secondary study objectives are the following: • a. Number of patients achieving clinical improvement on Day 7 • b. Number of patients achieving clinical improvement on Day 14 • c. Number of patients achieving clinical recovery on Day 7 • d. Number of patients achieving clinical recovery on Day 14
# as §3
# The clinical disease severity during the study will be assessed based on the WHO Ordinal Scale for Clinical Status (Table 2). The WHO scale is a 9-category ordinal scale and was developed to have a standardized measure of the COVID-19 disease severity. The scale comprises patient status (outpatient or hospitalized), virus status (infected yes or no), limitation of activities, oxygen support, and organ support.
# The same picture was observed on Day 5, with difference 18% (p=0.03 . . . ), regarding the endpoint Clinical improvement. This endpoint was measured using WHO 9-category ordinal scale, developed to have a standardized measure of the COVID-19 disease severity. Clinical improvement is defined as a decrease on WHO ordinal scale score by at least one point. For our statistical calculations from data obtained from the clinical trials we used the method described above i.e. O'Brien-Fleming method for normally distributed data.
# [3] = test system: COVID-19; experiment: COVID-19 clinical trial: time to hospital discharge; assay type: in vivo, human; conditions: p=0.2755
# Description: as §1
# as §2, with “window. […]” for “window.”
# [4] = test system: C reactive protein; experiment: COVID-19 clinical trial: predictive marker C reactive protein; assay type: in vivo, human; conditions: Day 14
# [5] = test system: D-dimer; experiment: COVID-19 clinical trial: predictive marker D-dimer; assay type: in vivo, human
# [6] = acute oral, mice; cited from earlier work
# [7] = acute oral, rats; relative to 200 μg/kg in mice; cited from earlier work
# [8] = rhesus monkeys, cited from earlier work
# [9] = dogs; cited from earlier work
# [10] = variety of species; cited from earlier work
# [11] = repeated dose, 2 weeks, rhesus monkeys; cited from earlier work
# [12] = fourteen-week study, rats; cited from earlier work
# [13] = fourteen-week study, dogs; cited from earlier work
# [14] = various species; cited from earlier work
# [15] = mice; cited from earlier work
# [16] = rats; cited from earlier work
# [17] = rabbits; cited from earlier work
# [18] = test system: mouse lymphoma; conditions: cited from earlier work
# [19] = test system: human fibroblast cell culture; conditions: cited from earlier work
# [20] = cited from earlier work; for mean peak plasma concentration of the major component (H2B1a): single 12-mg dose (mean 165 mcg/kg)
# [21] = people treated with ivermectin; cited from earlier work
substance,measurement,setting,value
ivermectin,effect on viral clearance,"[1]; Day 4, immediately after treatment, 2 consecutive negative PCR tests",beneficial effect on the viral clearance
same,patients with negative PCR test results (2 consecutive negative tests),"[1]; Day 4, 400 μg/kg/day peroral Days 1-3 plus SoC, placebo arm 42%",52%
same,"Day of second negative PCR test, Mean","[1]; N=50, 400 μg/kg/day peroral Days 1-3 plus SoC",5.52
same,day by which the effect appears,[1]; PCR test endpoint,< 7 days
same,"Day of second negative PCR test, Difference Reference minus Test","[1]; p-value 0.3407, statistically insignificant",0.54 days
same,Clinical improvement versus placebo arm,"[2]; Day 4, p=0.02..., decrease on WHO ordinal scale by at least one point",statistically significant difference
same,"Clinical improvement, difference versus placebo arm","[2]; Day 5, p=0.03...",18%
same,Clinical improvement by visit day,"[2]; FIG. 3, later difference statistically insignificant",better results at days 4 and 5
same,overall clinical benefit versus Placebo treatment arm,[2]; early days of infection (day 4 and day 5 after initial dose),definitely shows clinical benefit
same,"Time to hospital discharge, difference between arms",[3],no statistically significant difference
same,CRP mean value,[4],13.76 mg/L
same,CRP median value,[4],3.70 mg/L
same,D-dimer mean value,[5]; Day 3,395.8 ng/mL
same,D-dimer mean value,[5]; Day 14,561.69 ng/mL
same,dose producing tremors and ataxia,[6],0.2 mg/kg
same,dose producing tremors and ataxia,[7],slightly higher doses
same,minimum toxic dose,[8]; acute oral,"2,000 μg/kg"
same,"toxic effects (emesis, mydriasis, sedation) at high doses",[8]; doses up to 24 mg/kg (120-fold the clinical dose),only slight increases in the observed toxic effects
same,single oral dose with no significant lethality,[9],up to 10 mg/kg
same,tolerability of a 200 μg/kg dose,[10],generally well tolerated
same,dose with no adverse effects,[11],"up to 1,200 μg/kg/day"
same,dose with no adverse effects,[12],400 µg/kg/day
same,dose with no adverse effects,[13],500 µg/kg/day
same,breeding performance,[14],has not been adversely affected
same,oral dose causing cleft palates,[15],0.4 mg/kg/day
same,oral dose causing cleft palates,[16],10 mg/kg/day
same,dose causing cleft palates and clubbed feet,[17],3 mg/kg/day
same,mouse lymphoma mutation assay result,[18],negative
same,unscheduled DNA synthesis,[19],did not induce
same,mean peak plasma concentration of the major component (H2B1a),"[20]; first of two studies, fasting healthy volunteers, range 16.4-101.1",46.6 (±21.9) ng/mL
same,period of excretion in the feces,"[20]; ivermectin and/or metabolites, excreted almost exclusively in the feces",~12 days
same,plasma half-life,"[20]; man, oral administration",approximately 18 hours
same,plasma concentration versus dose,[20]; oral administration,approximately proportional to the dose
same,administered dose excreted in the urine,[20]; oral,less than 1%
same,mean peak plasma concentration of the major component (H2B1a),"[20]; second of two studies, fasting healthy volunteers, range 13.9-68.4",30.6 (±15.6) ng/mL
same,time of peak plasma concentration after dosing,"[20]; single 12-mg dose, fasting healthy volunteers",approximately 4 hours
same,common side effects,[21],"headache, dizziness, drowsiness, muscle pain, abdominal pain, nausea, vomiting or diarrhea, pruritus, fatigue, hypotension"
